Reference: article PMC9484092, “Three novel leaderless bacteriocins have antimicrobial activity against gram-positive bacteria to serve as promising food biopreservative” (Microbial Cell Factories, 2022)
No end group written: not given here. *: point of attachment. For = O=C*

Legend:
[1] = tested on: Bacillus thuringiensis P86; test: MIC, agar well diffusion; type: cell-based; details: Bacillus thuringiensis P86 (thucin A1 producer strain), LB, lowest concentration forming a clear zone, highest concentration 60 μM
Description: (§1) Antibacterial activity against various indicator strains were determined by the agar well diffusion method. Briefly, each of the indicator strains (10^6 CFU/mL) was spread on a LB agar plate (45 °C) with wells (diameter = 6 mm). Then, 50 μL bacteriocin solution was added to the wells. The plate was kept at 4 °C for 2 h and subsequently incubated at a temperature suitable for the growth of the indicator strains for 12 h, followed by the measurement of inhibition zone to assess the antimicrobial activity.
(§2) The minimum inhibitory concentrations (MICs) of the bacteriocins against various indicator strains were determined by a previously described method. Briefly, the antimicrobial activities of different final concentrations bacteriocin solutions were measured by the agar well diffusion method described above. The MIC was defined at the lowest concentration of samples that could form a clear zone of inhibition.

[2] = tested on: Bacillus cereus ATCC 14579; type: cell-based; details: ATCC 14579, 12 h
Description: as §1, §2

Bacillus cereus UW85 = type: cell-based; details: UW85, 2 h
Description: as §1, §2

Bacillus firmus DS-1 = type: cell-based; details: 2 h
Description: as §1, §2

Bacillus pumilus SCG1 = type: cell-based; details: 2 h
Description: as §1, §2

Bacillus siamensis HCX05 = type: cell-based; details: 2 h
Description: as §1, §2

Bacillus simplex SYY08 = type: cell-based; details: 2 h
Description: as §1, §2

Bacillus subtilis 168 = type: cell-based; details: 168, 2 h
Description: as §1, §2

Bacillus subtilis Bsn5 = type: cell-based; details: Bsn5, 2 h
Description: as §1, §2

[3] = tested on: Bacillus thuringiensis BMB171; type: cell-based; details: 2 h
Description: as §1, §2

[4] = tested on: Glutamicibacter arilaitensis HCX33; type: cell-based; details: 2 h
Description: as §1, §2

[5] = tested on: Listeria monocytogenes LM201; type: cell-based; details: LM201, 2 h
Description: as §1, §2

[6] = tested on: Listeria monocytogenes LM605; type: cell-based; details: LM605, 2 h
Description: as §1, §2

[7] = tested on: Lysinibacillus fusiformis ZZY15-1; type: cell-based; details: 2 h
Description: as §1, §2

Rhodococcus sp. ZCH08 = type: cell-based; details: 2 h
Description: as §1, §2

[8] = tested on: Staphylococcus aureus ATCC 43300; type: cell-based; details: ATCC 43300, 2 h
Description: as §1, §2

[9] = tested on: Staphylococcus succinus SYY04; type: cell-based; details: 2 h
Description: as §1, §2

proteinase K = proteinase K (Parengyodontium album, UniProt P06873); test: Protease stability, residual antimicrobial activity; type: in vitro ADME; details: 4× MIC mixed 1:1 (v/v) with proteinase K 1 mg/mL (≥ 40 U/mg), 37 °C, 2 h; agar well diffusion, B. cereus ATCC 14579; triplicate
Chain of proteinase K (P06873 106-384): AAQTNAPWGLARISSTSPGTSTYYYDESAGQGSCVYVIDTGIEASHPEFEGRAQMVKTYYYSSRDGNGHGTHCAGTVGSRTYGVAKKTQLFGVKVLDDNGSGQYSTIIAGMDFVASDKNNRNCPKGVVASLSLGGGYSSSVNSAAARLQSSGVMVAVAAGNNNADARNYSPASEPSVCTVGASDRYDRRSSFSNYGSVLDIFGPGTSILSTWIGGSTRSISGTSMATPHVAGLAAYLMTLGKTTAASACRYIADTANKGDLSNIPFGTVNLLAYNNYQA
Description: as §1
Nisin A was commercial nisin A (Sigma-Aldrich, Shanghai, China) purified by HPLC as described above. The purity of nisin A and thucin A1 was all greater than 95% based on the ratio of absorption peak area at 210 nm. The stability assay was performed by previously described method with some modifications. To compare the pH stability of thucin A1 and nisin A, the bacteriocin solutions (1× , 2× , 4× , 8× MIC) were adjusted to pH 2.0, 3.0, 4.0, 5.0, 6.0, 7.0, 8.0, 9.0, 10.0, 11.0 and 12.0 with 0.5 M NaOH or 0.5 M HCl solution, followed by incubation at 37 °C for 4 h. The residual antimicrobial activity was tested after neutralizing the sample to pH 6.0. […] The indicator strain used in this experiment was B. cereus ATCC 14579 and the antimicrobial activity was determined with the agar well diffusion method as described above. […]

With “For-MIAFLRIVAQLGARAARWAWANKDRVLGWIRDGMAIDWIINKINDMVS [Thucin A1]” as the substance, how does the MIC [1] read?
The MIC was 7.5 µM.

And the MIC [2]?
The MIC was 1.88 µM.

What about the MIC (Bacillus cereus UW85) of the same substance?
The MIC was 1.88 µM.

And the MIC (Bacillus firmus DS-1)?
Its MIC is 3.75 µM.

And the MIC (Bacillus pumilus SCG1)?
Its MIC is 3.75 µM.

What about the MIC (Bacillus siamensis HCX05) of the same substance?
Its MIC is 3.75 µM.

And the MIC (Bacillus simplex SYY08)?
Its MIC is 1.88 µM.

And the MIC (Bacillus subtilis 168)?
The MIC was 3.75 µM.

What about the MIC (Bacillus subtilis Bsn5) of the same substance?
Its MIC is 3.75 µM.

What about the MIC [3] of the same substance?
Its MIC is 1.88 µM.

What about the MIC [4] of the same substance?
Its MIC is 7.5 µM.

And the MIC [5]?
Its MIC is 0.47 µM.

What about the MIC [6] of the same substance?
The MIC was 0.47 µM.

What about the MIC [7] of the same substance?
Its MIC is 7.5 µM.

And the MIC (Rhodococcus sp. ZCH08)?
Its MIC is 15 µM.

What about the MIC [8] of the same substance?
The MIC was 15 µM.

What about the MIC [9] of the same substance?
Its MIC is 15 µM.

What about the “residual antimicrobial activity after digestion with proteinase K” value (proteinase K) of the same substance?
The value was “completely lost its antimicrobial activity”.
